This assay relates to gastric acid secretion. Description: gastric acid secretion inhibiting effect, method of Shay (pylorus bound, free acid titrated). In kind it is in vivo, Rats (Wistar breed). The settings on record: given 3 hours before the operation, free acid determined 4 hours after the operation, inhibition in relation to the control. The method, then: Rats of both sexes (Wistar breed, weighing 180-240 g) were fastened for 48 hours. On the day of the test the pylorus of the animals was bound under ether narcosis. The test compounds were administered orally 3 hours before the operation. 4 hours after the operation the animals were anaesthetized and the stomach was removed, the content thereof was centrifuged and the amount of the free acid was determined by titration, in the presence of Töpfer reagent. The inhibition in relation to the control is calculated in percentage.

For the compound `Clc1c2c(nc3nc(N4CCOCC4)nn13)CCCC2` [Example 12, 5-Chloro-2-morpholino-6,7,8,9-tetrahydro-1,2,4-triazolo[5,1-b]quinazoline], for the setting “Dose 200 mg/kg peroral”, the Inhibition % is given as 85%.

On to `CSc1nc2nc3c(c(Cl)n2n1)CCCC3` [Example 6, 5-Chloro-2-methylthio-6,7,8,9-tetrahydro-1,2,4-triazolo[5,1-b]quinazoline], for which the Inhibition % (Dose 60 mg/kg peroral) was found to be 100%.

Under “Dose 30 mg/kg peroral”, `CSc1nc2nc3c(c(Cl)n2n1)CCC3` [Example 2, 5-Chloro-2-methylthio-6,7-dihydro-8H-cyclopenta[d]-1,2,4-triazolo[1,5-a]pyrimidine] showed an Inhibition % of 73%. For `COc1cc(C(=S)N2CCOCC2)cc(OC)c1OC` [Trithiozine, 3,4,5-Trimethoxythio-benzoic acid morpholide, reference compound], the Inhibition % (Dose 400 mg/kg peroral) turned out to be 63%.

The values are drawn from patent EP0500137A1, “1,2,4-Triazolo[1,5-a]pyrimidine derivatives, a process for preparing them as well as medicaments containing them and the use of them” (EGIS GYOGYSZERGYAR, priority 1991, dated 1992).
